Consider 3 molecules from article PMC5125025 (Science (New York, N.Y.), 2015).

The target of one assay is RsTSPO A139T mutant (Cereibacter sphaeroides, UniProt Q9RFC8, A139T). The experiment in a line: Ligand binding affinity of purified RsTSPO A139T mutant. Set-up: species or system Rhodobacter sphaeroides.
The subject of a further assay is RsTSPO WT. The conditions noted are these: cited from earlier work.

A value given as a limit tells only on which side of the number the result lay.

Chain of RsTSPO A139T mutant (Q9RFC8 whole entry A139T): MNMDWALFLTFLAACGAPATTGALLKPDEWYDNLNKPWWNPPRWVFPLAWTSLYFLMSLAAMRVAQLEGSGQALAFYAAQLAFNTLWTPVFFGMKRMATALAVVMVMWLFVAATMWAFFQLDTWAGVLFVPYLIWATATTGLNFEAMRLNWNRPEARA

For the molecule `CCC(C)N(C)C(=O)c1cc2ccccc2c(-c2ccccc2Cl)n1` (stereo not drawn) [PK11195], the affinity at RsTSPO A139T mutant, expressed as Kd, was 42 ± 4 µM. Besides, the “affinities of RsTSPO for ligands (range in words)” value (from here on “affinities of RsTSPO for ligands”) in the assay with RsTSPO WT is given as “high nanomolar to micromolar range”.

With `C=CC1=C(C)c2cc3[nH]c(cc4nc(cc5[nH]c(cc1n2)c(C)c5CCC(=O)O)C(CCC(=O)O)=C4C)c(C)c3C=C` [PpIX, protoporphyrin IX], the affinity at RsTSPO A139T mutant, expressed as Kd, was 1.9 ± 0.3 µM. Moreover, the “affinities of RsTSPO for ligands” value with RsTSPO WT is reported as “high nanomolar to micromolar range”.

In turn, `CC(C)CCC[C@@H](C)[C@H]1CC[C@H]2[C@@H]3CC=C4C[C@@H](O)CC[C@]4(C)[C@H]3CC[C@]12C` [cholesterol] yielded a Kd on RsTSPO A139T mutant above 300 µM. The “affinities of RsTSPO for ligands” value in the assay on RsTSPO WT is listed as “high nanomolar to micromolar range”.

Usually Kd stands for the concentration at which binding is half-saturated. Higher therefore signals lower affinity.
